What all share (experiment): NCI-60 cell line screen, 48 h
Assay [1] relates to SK-MEL-2.
For assay [2], the system named is HT-29.
Assay [3] concerns M14.
Assay [4] deals with NCI-H460.
Assay [5] concerns PC-3.
The test system of assay [6] is SN12C.
Assay [7] deals with MCF7.
Assay [8] deals with SF-268.
In assay [9] the test system is SK-OV-3.
In assay [10] the test system is UACC-257.
Assay [11] has as its system RPMI-8226.
The subject of assay [12] is T47D.
The subject of assay [13] is A549.
For assay [14], the system named is MDA-MB-231.
In assay [15] the test system is TK-10.
The test system of assay [16] is OVCAR-4.
The subject of assay [17] is SR.
Assay [18] concerns HCT-15.
For assay [19], the system named is SK-MEL-5.
Assay [20] deals with COLO 205.

Structures are written as SMILES.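 Method: 48-hour compound exposure of cells in 96-well plates, five concentrations, linear interpolation of endpoints. Abbreviation: GI50, concentration required for 50% inhibition of growth.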 The source made the active and inactive calls. No stated cut-off is given here; in the data, active = GI50 up to about 1.1 µM and inactive = higher. Where only a bound is given, the exact number is not on record here.

Take `NNC(=O)c1cc(Cl)ccc1NC(=O)C12CC3CC(CC(C3)C1)C2`: the GI50 in assay [1] is 37.8 µM (inactive); in assay [2], 20.2 µM (inactive); in [3] it was 14.1 µM (inactive); in assay [4], 30.9 µM (inactive); in assay [5], 35.3 µM (inactive); in assay [6] it was 20.5 µM (inactive). Further, the GI50 is 27.2 µM (inactive) in [7]; 20.2 µM (inactive) in assay [8]; 28.7 µM (inactive) in assay [9]; 29.3 µM (inactive) in assay [10]; 24 µM (inactive) in assay [11]; 33 µM (inactive) in [12]. Further, the GI50 in [13] was 20.2 µM (inactive); in [14], 51.2 µM (inactive); in assay [15] it was 28.4 µM (inactive); in [16] it was 21.8 µM (inactive); in assay [17], 14.4 µM (inactive); in [18] it was 27.8 µM. Also, the GI50 is 25.9 µM (inactive) in assay [19] and 33.6 µM (inactive) in assay [20].
As to `CCCCCCCCCCCCCCCCCC(=O)Nc1ccn(C2OC(CO)C(O)C2O)c(=O)n1` (stereo not given), the GI50 in assay [1] was > 100 µM (inactive); in assay [2], 20.1 µM (inactive); in assay [3], 14.2 µM (inactive); in assay [4] it was 2.69 µM (inactive); in assay [5], 4.92 µM (inactive); in [6], 26.1 µM (inactive). For the same molecule, the GI50 in assay [7] was 2.06 µM (inactive); in [8] it was 20.1 µM (inactive); in assay [9] it was 35.1 µM (inactive); in assay [10], > 100 µM (inactive); in [11], 31.6 µM (inactive); in assay [12] it was > 100 µM (inactive). Besides, the GI50 in assay [13] is 2.99 µM (inactive); in assay [14] it was > 100 µM (inactive); in assay [15] it was > 100 µM (inactive); in [16], > 100 µM (inactive); in [17], 2.14 µM (inactive); in [18], 33 µM. Also, the figures for the GI50 in [19] and in assay [20] were 47.9 µM (inactive) and 61.9 µM (inactive), respectively.

The values above are taken from ChEMBL document CHEMBL1201862, “PubChem BioAssay data set” (2004).
